Results from ChEMBL document CHEMBL1155860, “Structure-activity relationship study of bone morphogenetic protein (BMP) signaling inhibitors” (Bioorg Med Chem Lett, 2008).

Target: T1, Bone morphogenetic protein 4 (Homo sapiens, UniProt P12644)
T1 sequence (P12644 whole entry): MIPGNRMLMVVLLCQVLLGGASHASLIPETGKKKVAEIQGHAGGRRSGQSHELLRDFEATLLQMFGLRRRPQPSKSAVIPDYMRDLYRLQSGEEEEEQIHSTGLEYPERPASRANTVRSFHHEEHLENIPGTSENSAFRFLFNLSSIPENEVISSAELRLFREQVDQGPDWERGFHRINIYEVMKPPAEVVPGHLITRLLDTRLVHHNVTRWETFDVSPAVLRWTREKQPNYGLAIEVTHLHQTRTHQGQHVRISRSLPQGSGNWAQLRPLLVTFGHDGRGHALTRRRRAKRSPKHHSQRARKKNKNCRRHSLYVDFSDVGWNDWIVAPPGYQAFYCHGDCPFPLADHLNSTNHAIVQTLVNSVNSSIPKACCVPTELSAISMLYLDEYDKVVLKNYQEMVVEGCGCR
Test: Inhibition of BMP4-induced phosphorylation of SMAD 1/5/8 by cytoblot cellular ELISA
Details: not given

Structure (SMILES)	IC50 [µM]
c1cncc(-c2cnn3cc(-c4ccc(OCCN5CCCCC5)cc4)cnc23)c1	> 20
c1cc(-c2cnn3cc(-c4ccc(OCCN5CCOCC5)cc4)cnc23)ccn1	2
COc1ccc(-c2cnc3c(-c4ccncc4)cnn3c2)cc1	6.5
COc1ccc(-c2cnc3c(-c4cnc5ccccc5c4)cnn3c2)cc1	> 20
CN1CCN(CCOc2ccc(-c3cnc4c(-c5ccncc5)cnn4c3)cc2)CC1	0.45
c1cc2ncc(-c3ccc(OCCN4CCCCC4)cc3)cn2n1	> 20
COc1ccc(-c2cnc3c(-c4cccc5cccnc45)cnn3c2)cc1	> 20
Oc1ccc(-c2cnc3c(-c4ccnc5ccccc45)cnn3c2)cc1	0.25
COc1ccc(-c2cnc3c(-c4ccnc5ccccc45)ccn3c2)cc1	> 20
c1ccc2c(-c3ccn4cc(-c5ccc(OCCN6CCCCC6)cc5)cnc34)ccnc2c1	2.6
COc1ccc(-c2ccc3c(-c4ccnc5ccccc45)cnn3c2)cc1	0.15
c1ccc2c(-c3cnn4cc(-c5ccc(N6CCNCC6)cc5)ccc34)ccnc2c1	0.005
c1ccc(-c2cnn3cc(-c4ccc(OCCN5CCCCC5)cc4)cnc23)cc1	> 20
CN1CCN(CCOc2ccc(-c3cnc4c(-c5ccncc5F)cnn4c3)cc2)CC1	3.3
c1cc(-c2cnc3c(-c4ccnc5ccccc45)cnn3c2)cc(N2CCNCC2)c1	20
Clc1ccc2c(-c3cnn4cc(-c5ccc(N6CCNCC6)cc5)cnc34)ccnc2c1	0.35
Cc1nn2cc(-c3ccc(OCCN4CCN(C)CC4)cc3)cnc2c1-c1ccncc1	> 20
CN1CCN(CCOc2cccc(-c3cnc4c(-c5ccncc5)cnn4c3)c2)CC1	4.5
CN1CCN(CCOc2ccc(-c3cnc4c(-c5ccnc6ccccc56)cnn4c3)cc2)CC1	0.01
c1ccc2c(-c3cnn4cc(-c5ccc(OCCN6CCCCC6)cc5)cnc34)ccnc2c1	0.09
c1ccc(-c2cnc3c(-c4ccnc5ccccc45)cnn3c2)cc1	0.75
COC(=O)c1cc(-c2ccnc3ccccc23)c2ncc(-c3ccc(OC)cc3)cn12	> 20
COc1ccc(-c2cnc3c(-c4cccc5ncccc45)cnn3c2)cc1	3
CCN(CC)CCOc1ccc(-c2cnc3c(-c4ccncc4)cnn3c2)cc1	0.5
COc1ccc(-c2cnc3c(-c4ccnc5ccccc45)cnn3c2)cc1	0.055
COc1ccc(-c2cnc3c(-c4ccnc5cc(Cl)ccc45)cnn3c2)cc1	0.5
c1ccc2c(-c3cnn4cccnc34)ccnc2c1	5
c1ccc2c(-c3cnn4cc(-c5ccc(N6CCNCC6)cc5)cnc34)ccnc2c1	0.0049
COc1ccc(-c2cnc3c(-c4ccc5ncccc5c4)cnn3c2)cc1	> 20
c1cc(-c2cnn3cc(-c4ccc(OCCN5CCCCC5)cc4)cnc23)ccn1 [DORSOMORPHIN]	0.43

Tested on: not listed separately
Test: Half life in female C57B16 mouse at 3.0 mg/kg, ip
Type: ADME, organism-based
Set-up: dose 3 mg/kg, route intraperitoneal
Details: in vivo

Structure (SMILES)	half-life [min]
c1ccc2c(-c3cnn4cc(-c5ccc(N6CCNCC6)cc5)cnc34)ccnc2c1	96

Tested on: not listed separately
Test: Tmax in male C57B16 mouse at 3.0 mg/kg, ip
Type: ADME, organism-based
Set-up: dose 3 mg/kg, route intraperitoneal
Details: in vivo

Structure (SMILES)	Tmax [min]
c1ccc2c(-c3cnn4cc(-c5ccc(N6CCNCC6)cc5)cnc34)ccnc2c1	< 5

Tested on: not listed separately
Test: Metabolic stability in mouse liver microsomes assessed as intrinsic clearance
Type: ADME, Microsome
Details: not given

Structure (SMILES)	microsomal CLint [µL/min/mg]
CN1CCN(CCOc2ccc(-c3cnc4c(-c5ccnc6ccccc56)cnn4c3)cc2)CC1	104

Tested on: not listed separately
Test: Tmax in female C57B16 mouse at 3.0 mg/kg, ip
Type: ADME, organism-based
Set-up: dose 3 mg/kg, route intraperitoneal
Details: in vivo

Structure (SMILES)	Tmax [min]
c1ccc2c(-c3cnn4cc(-c5ccc(N6CCNCC6)cc5)cnc34)ccnc2c1	< 5

Tested on: not listed separately
Test: Metabolic stability in mouse liver microsomes assessed as half life
Type: ADME, Microsome
Details: not given

Structure (SMILES)	half-life [min]
CN1CCN(CCOc2ccc(-c3cnc4c(-c5ccnc6ccccc56)cnn4c3)cc2)CC1	13.3
